The subject of series [1] is SH-SY5Y neuroblastoma cells. The series can be described thus: Cytotoxic activity of compounds alone, MTT cell viability assay. The settings on record: 50 μM compound alone, 24 h, 37 °C, 0.5% DMSO, SH-SY5Y. Here is the method: Neuroprotective assays in human neuroblastoma (SH-SY5Y) cells. SH-SY5Y cells were grown in Dulbecco’s Modified Eagle Medium (DMEM, Gibco, Life Technologies) supplemented with 10% fetal bovine serum (FBS, Biochrom GmbH) and 1% Penicillin-Streptomycin (Gibco, Life Technologies) in a humidified incubator at 37 °C, 5% CO2. For the neuroprotective activity assay, undifferentiated SGSY-5Y cells were plated onto 96-well flat-bottomed microtiter plates at a density of 1 × 10^4 cells/well in DMEM supplemented with 2% FBS and preincubated for 24 h at 37 °C, 5% CO2. Compounds (stored as 10 mM solutions in DMSO at −20 °C) were then added to achieve a final concentration of 50 μM and, after 30 min, cells were incubated in the presence or absence of 20 μM Aβ protein fragment 1-42 (Sigma-Aldrich, dissolved in DMSO and stored in 2 mM aliquots at −20 °C) or 100 μM of H2O2 (Sigma-Aldrich, dissolved to 10 mM in 0.9% NaCl aqueous solution immediately prior to the assay) overnight at 37 °C, 5% CO2. […] The following morning, 20 μL of a 5 mg/mL solution of 3-(4,5-dimethylthiazol-2-yl)-2,5-diphenyltetrazolium bromide (MTT, Sigma-Aldrich) in PBS (Gibco, Life Technologies) was added to each well and the plates were further incubated for 4 h at 37 °C, followed by the addition of DMSO (200 μL) to each well in order to dissolve the resulting formazan crystals. After 2 h incubating at 37 °C, the optical density (OD) at 540 nm (with a 620 nm reference filter) was measured in an Amersham Biosciences Biotrak II Plate Reader. The percentage of MTT reduction was determined according to Equation (1). […] Differences between experimental conditions were compared for statistical significance by one-way ANOVA followed by a Tukey’s post-test, an analysis carried out using GraphPad Prism Software (LA Jolla, CA, USA). Differences were considered significant when P < 0.05. In order to exclude direct MTT reduction, compounds were also tested in (a) the absence of cells and (b) in the absence of both cells and culture medium, using the same experimental conditions described above. (2) MTT Reduction (% of Control)=[ODsample−ODmedium/ODcell control−ODmedium] × 100 […]
Tabl e S2. Cytotoxic activity of each compound assessed in SH-SY5Y neuroblastoma cells via an MTT cell viability assay.a Comp ound Nr. MTT reduction (% control) p-va l u e vs . untreated cell control (unpai red t-t es t) […]
a Cells were incubated for 24 h at 37 °C, in the presence (50 μM) or absence of each compound.

A short description of series [2]: Cell viability (MTT) assay in Caco-2 cells. Type of series: cell-based, human. The settings on record: human; Caco-2 cells, 0.1 μM to 100 μM; read-out: IC50 (cytotoxicity). How it is done:
(§1) Cell viability assay in human epithelial colorectal adenocarcinoma (Caco-2) and human liver hepatocellular (HepG2) cells. Caco-2 and HepG2 Cells were cultured in DMEM-Dulbecco’s modified Eagle’s medium (Sigma-Aldrich) supplemented with 10% (v/v) inactivated fetal bovine serum (PAA Laboratories GmbH), 2 mM L-glutamine (Sigma-Aldrich), 100 U/mL penicillin and 100 μg/mL streptomycin (Sigma-Aldrich), in a humidified incubator at 37 °C with a 5% CO2 atmosphere. Cells (3 × 10^4 cells/well) were seeded into 96-well plates and incubated at 37 °C in 5% CO2 atmosphere. After 24 h, compounds were added at different concentrations (0.1–100 μM) and incubated in the same conditions. DMSO controls were performed to evaluate a possible solvent cytotoxicity, while pure DMSO was used as a cytotoxic drug. After the established incubation time with compounds, MTT (5 mg/mL) in PBS (Sigma-Aldrich) was added (10 μL) to each well. After 3 h incubation at 37 °C, in 5% CO2, the supernatant was removed. The formazan crystals were solubilized using ethanol/DMSO (1:1) (100 μL), and the absorbance values were determined at 570 nm on the microplate reader Victor3 from PerkinElmer Life Sciences.

For series [3], the system named is human epithelial colorectal adenocarcinoma (Caco-2) cells. The series can be described thus: Cell viability (MTT) assay in Caco-2 cells. Type of series: cell-based. The settings on record: at 100 μM. How it is done: as §1
Series [4] relates to human liver hepatocellular (HepG2) cells. The series can be described thus: Cell viability (MTT) assay in HepG2 cells. Type of series: cell-based. The settings on record: at 100 μM. Here is the method: as §1

The term IC50 denotes the concentration needed to halve the response being measured.

`O=c1cc(-c2ccc(N3CCOCC3)cc2)oc2c([C@@H]3O[C@H](CO)[C@@H](O)[C@H](O)[C@H]3O)c(O)cc(O)c12` [Compound 19, 8-(β-D-Glucopyranosyl)-5,7-dihydroxy-4′-(morpholin-4-yl)flavone]: the “MTT reduction (% control)” value in series [1] stood at 138.5 ± 3.6%. Further, in series [2], the concentration for half-maximal inhibition (IC50) is not below 100 µM. Moreover, the “Cytotoxicity towards Caco-2 cells” value in series [3] is “did not show any cytotoxicity”. Besides, the “Cytotoxicity towards HepG2 cells” value in series [4] is recorded as “did not show any cytotoxicity”.
